For assay [1], the system named is STC-1 cells. The assay can be described thus: Change in Ca2+ level in STC-1 cells. The class given is cell-based. On the procedure:
(§1) The cells were inoculated onto a poly-D-Lysine-coated black 96-well clear-bottom plate (Thermo) at a concentration of 8.0×10^4 cells/well and incubated under the condition of 37° C. and 5% CO2. 72 hours later, the cells were incubated at 37° C. for 60 minutes using the Calcium-5 assay kit (Molecular Devices) and the change in Ca^2+ level was measured using Flexstation III. The change in Ca^2+ level was monitored for about 120 seconds at fluorescence wavelengths of 488 nm (ex) and 525 nm (em) and for 2 seconds after injecting the compound for 20 seconds.

Assay [2] deals with RIN14B cells. Description: 5-HT secretion in RIN14B cells (Serotonin EIA). The conditions noted are these: 300 μM, 60 minutes. The class given is cell-based. As for the experimental part: RIN14B cells were cultured in RPMI medium 1640 containing 10% fetal bovine serum (FBS) and 1% penicillin-streptomycin in an incubator maintained at 37° C. and 5% CO2.
(§2) The cultured cells were inoculated onto a 24-well plate at a concentration of 2×10^5 cells/well and incubated under the condition of 37° C. and 5% CO2. 72 hours later, the cells were washed 2 times with 5-HT assay buffer (HBSS, 0.1% BSA, 1.25 mM CaCl2, 2 μM fluoxetine, pH 7.4) and then incubated at 37° C. for 60 minutes after adding the test substance to the 5-HT assay buffer. After the incubation, the medium was centrifuged at 10,000 rpm for 10 minutes and the resultant supernatant was stored at −70° C. for use in analysis. A Serotonin (EIA) kit (Enzo Life Sciences) was used.

Assay [3] deals with RIN14B cells. Description: Change in Ca2+ level in RIN14B cells. It counts as cell-based. As for the experimental part: (§3) The cells were inoculated onto a black 96-well clear-bottom plate (Corning) at a concentration of 5.0×10^4 cells/well and incubated under the condition of 37° C. and 5% CO2. 48 hours later, the cells were incubated at 37° C. for 60 minutes using the Calcium-5 assay kit (Molecular Devices) and the change in Ca^2+ level was measured using Flexstation III. The change in Ca^2+ level was monitored for about 120 seconds at fluorescence wavelengths of 488 nm (ex) and 525 nm (em) and for 2 seconds after injecting the compound for 20 seconds.

Assay [4] concerns RIN14B cells. The assay can be described thus: Change in Ca2+ level in RIN14B cells after inhibitor pretreatment (RR, HC-030031). The class given is cell-based. The settings on record: 300 μM. On the procedure:
as §3
The RIN14B cells were pretreated for 60 minutes with 100 μM ruthenium red (RR) or with 50 μM HC-030031. […]

Assay [5] has as its system RIN14B cells. The assay can be described thus: 5-HT secretion in RIN14B cells after inhibitor pretreatment (RR, HC-030031). The class given is cell-based. The conditions noted are these: 300 μM. As for the experimental part: as §2
The RIN14B cells were pretreated for 30 minutes with 100 μM ruthenium red (RR) or with 50 μM HC-030031. […]

In assay [6] the test system is STC-1 cells. Description: CCK secretion in STC-1 cells after inhibitor pretreatment (RR, HC-030031, TPPO, U-73122). It counts as cell-based. The settings on record: 0.1 mM. As for the experimental part:
as §2, with “HEPES” for “5-HT assay”, “(4.5 mM KCl, 1.2” for “(HBSS, 0.1% BSA, 1.25”, “1.2 mM MgCl2, 10 mM glucose, 140 mM NaCl, 20 mM HEPES-Tris,” for “2 μM fluoxetine,”, “10000” for “10,000”, “An enzyme immunoassay” for “A Serotonin”, “(Phoenix Pharmaceuticals Inc., Belmont Calif.)” for “(Enzo Life Sciences)”
The STC-1 cells were pretreated for 30 minutes with 100 μM ruthenium red (RR) or with 50 μM HC-030031. After adding 50 μg/mL of the extract, the cells were incubated at 37° C. for 60 minutes.
The STC-1 cells were pretreated for 30 minutes with 100 μM ruthenium red (RR) or with 50 μM HC-030031. After adding 500 μg/mL of the extract, the cells were incubated at 37° C. for 60 minutes.
The STC-1 cells were pretreated for 30 minutes with 400 μM TPPO or with 20 μM U-73122.
After adding 500 μg/mL of the extract, the cells were incubated at 37° C. for 60 minutes.
The STC-1 cells were pretreated for 30 minutes with 100 μM ruthenium red (RR) or with 50 μM HC-030031. Then, the cells were incubated at 37° C. for 60 minutes after adding 500 μg/mL of the extract.
Then, the cells were incubated at 37° C. for 60 minutes after adding 500 μg/mL of the extract.

For assay [7], the system named is STC-1 cells. Description: CCK secretion in STC-1 cells (EIA). It counts as cell-based. The settings on record: 60 minutes. On the procedure: STC-1 cells were cultured in Dulbecco's modified Eagle's medium (DMEM) containing 10% fetal bovine serum (FBS) and 1% penicillin-streptomycin in an incubator maintained at 37° C. and 5% CO2. […] An enzyme immunoassay (EIA) kit (Phoenix Pharmaceuticals Inc., Belmont Calif.) was used.

For assay [8], the system named is STC-1 cells. Description: Change in Ca2+ level in STC-1 cells after inhibitor pretreatment (RR, HC-030031, TPPO, U-73122). The settings on record: 0.1 mM. The class given is cell-based. As for the experimental part:
as §1
The STC-1 cells were pretreated for 60 minutes with 100 μM ruthenium red (RR) or with 50 μM HC-030031. Then, the cells were treated with 1 mg/mL of the extract.
The STC-1 cells were pretreated for 60 minutes with 400 μM TPPO or with 20 μM U-73122.
Then, the cells were treated with 1 mg/mL of the extract.
The STC-1 cells were pretreated for 60 minutes with 100 μM ruthenium red or with 50 μM HC-030031. Then, the cells were treated with 1 mg/mL of the extract.
The STC-1 cells were pretreated for 60 minutes with 400 μM TPPO or with 20 μM U-73122. Then, the cells were treated with 1 mg/mL of the extract.

Assay [9] has as its system STC-1 cells. The assay can be described thus: Membrane potential change in STC-1 cells. The class given is cell-based.
Assay [10] addresses T1, GPR119 (Homo sapiens, UniProt Q8TDV5).
T1 construct: The transfection of the cells with GPR119 siRNA leads to knockdown of the GPR119 gene; endogenous in cells; host or cells: NCI-H716 cells
T1 sequence (Q8TDV5 1-335): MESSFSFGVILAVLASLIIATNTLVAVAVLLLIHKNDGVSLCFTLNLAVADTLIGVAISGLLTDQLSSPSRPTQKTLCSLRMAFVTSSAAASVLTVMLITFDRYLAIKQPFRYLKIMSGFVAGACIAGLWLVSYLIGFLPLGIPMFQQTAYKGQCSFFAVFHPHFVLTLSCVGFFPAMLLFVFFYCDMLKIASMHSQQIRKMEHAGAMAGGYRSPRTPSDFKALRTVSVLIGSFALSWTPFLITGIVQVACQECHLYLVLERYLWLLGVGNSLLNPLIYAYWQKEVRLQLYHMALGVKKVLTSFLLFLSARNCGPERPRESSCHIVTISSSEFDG
The assay can be described thus: GLP-1 secretion in NCI-H716 cells treated with GPR119 siRNA. It counts as cell-based. As for the experimental part:
The NCI-H716 cells were cultured on a 96-well plate for 3 days to a concentration of 2×10^5 cells/mL. On the day of the experiment, the cells were washed with phosphate-buffered saline (PBS) and incubated at 37° C. for 1 hour in Krebs-Ringer bicarbonate buffer (KRB, 128.8 mmol/L NaCl, 4.8 mmol/L KCl, 1.2 mmol/L KH2PO4, 1.2 mmol/L MgSO4, 2.5 mmol/L CaCl2, 5 mmol/L NaHCO3, 10 mmol/L HEPES, 0.2% BSA, pH 7.4) to which the sample was added. Then, for GLP-1 assay, the supernatant (100 μL) was taken and analyzed using an active GLP-1 ELISA kit (EGLP-35K, Millipore). The concentration of GLP-1 was calculated GLP-1 standard (pmol/mL) and the result was expressed as fold of control by comparing the concentration of GLP-1 secreted by stimulation with the sample and the concentration of GLP-1 secreted by stimulation with a control substance.
siRNA sequence targeting human α-gustducin (GNAT3, accession no. NM 001102386, Dharmacon on-target SMARTpool siRNA reagent), GPR119 ([…]/GeneBank accession no. NM_176817) and non-target SMARTpool siRNA were purchased from Dharmacon (Lafayette, Colo.). The NCI-H716 cells were transfected with the siRNAs for 48 hours using the Neon™ transfection system (Invitrogen, Carlsbad, Calif.). Then, GLP-1 secretion and the concentrations of Ca^2+ and cAMP were measured.

For assay [11], the system named is NCI-H716 cells. Description: Intracellular cAMP in NCI-H716 cells (EIA). It counts as cell-based, Human. The conditions noted are these: 20 μM. As for the experimental part:
The NCI-H716 cells were plated onto a 24-well culture plate at a concentration of 1×10^6 cells/mL and cultured for 3 days. On the day of the experiment, the cells were incubated with the sample in KRB buffer at 37° C. using a 5% CO2 incubator. After the incubation, the medium was removed and the cells were washed 3 times with KRB buffer. They were then incubated at 150 rpm at room temperature for 20 minutes after adding 0.5 mL of 0.1 N HCl. The incubated cells were then centrifuged at 1000 g for 10 minutes and the supernatant was analyzed by an enzyme immunoassay (EIA) using the cyclic AMP kit.

For `C=CCN=C=S` [AITC], the “Change in Ca^2+ level, ΔRFU (mean ± S.E.M.)” value in [1] (0.1 mM) was 105.41 ± 2.12 ΔRFU; in assay [1] (1 mM), 151.04 ± 5.65 ΔRFU; in [1] (10 mM) it was 168.68 ± 5.79 ΔRFU; in assay [3] (50 μM), 13.44 ± 1.78 ΔRFU; in assay [3] (300 μM) it was 19.78 ± 4.08 ΔRFU; in assay [3] (500 μM), 22.17 ± 3.65 ΔRFU. For the same compound, the “Change in Ca^2+ level, ΔRFU (mean ± S.E.M.)” value in assay [4] (inhibitor: Untreated) is 13.42 ± 1.08 ΔRFU; in [4] (pretreated 50 μM HC-030031), 3.98 ± 0.80 ΔRFU; in assay [4] (pretreated 100 μM RR), 4.51 ± 1.40 ΔRFU; in [8] (inhibitor: Untreated) it was 400.52 ± 6.90 ΔRFU; in assay [8] (pretreated 50 μM HC-030031), 66.07 ± 2.56 ΔRFU; in assay [8] (pretreated 100 μM RR), 27.47 ± 1.77 ΔRFU. For the same compound, the “5-HT secretion, Fold of control (mean ± S.E.M.)” value is given as 8.11 ± 2.70 Fold of control in assay [2], 8.11 ± 2.70 Fold of control in [5] (inhibitor: Untreated), 9.02 ± 6.37 Fold of control in assay [5] (pretreated 50 μM HC-030031) and 3.60 ± 1.80 Fold of control in assay [5] (pretreated 100 μM RR). In addition, the “Inhibition (%) of Ca^2+ change” value came to 70.31% in [4] (HC-030031 50 μM), 66.36% in assay [4] (RR 100 μM), 83.50% in [8] (HC-030031 50 μM) and 93.14% in assay [8] (RR 100 μM). For the same compound, the “Inhibition (%) of 5-HT secretion” value in assay [5] (HC-030031 50 μM) is reported as −11.27%; in assay [5] (RR 100 μM), 55.56%. Moreover, the “Inhibition (%) of CCK secretion” value in assay [6] (HC-030031 50 μM) turned out to be 52.58%; in [6] (RR 100 μM), 73.21%. The “CCK secretion, Fold of control (mean ± S.E.M.)” value in assay [6] (inhibitor: Untreated) is recorded as 22.56 ± 0.65 Fold of control; in [6] (pretreated 50 μM HC-030031), 10.70 ± 0.92 Fold of control; in [6] (pretreated 100 μM RR), 6.04 ± 0.73 Fold of control; in assay [7] (0.1 mM), 21.57 ± 0.59 Fold of control; in assay [7] (1 mM) it was 21.99 ± 0.64 Fold of control; in assay [7] (10 mM) it was 25.59 ± 0.59 Fold of control.

`[Cl-].[K+]` [KCl]: the entries for the “Membrane potential change, ΔRFU (mean ± SEM)” value in [9] (0.1 mM), in assay [9] (1 mM) and in assay [9] (10 mM) were 17.01 ± 0.93 ΔRFU, 35.08 ± 3.43 ΔRFU and 270.08 ± 9.57 ΔRFU, respectively.

As usually defined, the inhibition is how much of the control response was suppressed. In the case of `CCCCCCCC/C=C\CCCCCCCC(=O)NCCO` [OEA (oleoylethanolamide), oleoylethanolamide], the “GLP-1 secretion (fold of control) GPR119 siRNA” value in assay [10] (20 μM, GPR119 siRNA) is given as 2.975 ± 0.241 fold of control. For the same compound, the “GLP-1 secretion (fold of control) Control siRNA” value in assay [10] (20 μM, control siRNA) was 4.822 ± 0.358 fold of control. The same compound registered an inhibition at 20 µM in [10] (NCI-H716) of 38.3%. For the same compound, in assay [11], the “cAMP (fold of control)” value is 6.813 ± 1.634 fold of control.

These data come from patent US10293009B2, “Pharmaceutical or food composition comprising Oldenlandia brachypoda, Spergularia marina, Disporum smilacinum, Persicaria posumbu, or Geum aleppicum” (KOREA FOOD RESEARCH INSTITUTE, priority 2012, dated 2019).
